Common to all, as to assay type: cell-based
One test relates to MDA-MB-231 cells. The experiment in a line: Survival of MDA-MB-231 cells after drug treatment (methylene blue). The following applies: FIG. 14B; for killing / survival of MDA231 cells: methylene blue survival. The source says: (§1) FIG. 14A-I. Experimental validation of the approach (14A, 14D, 14G) Diagrams of signaling signatures of MDA-MB-231, MDA-MB-468 and MCF7 cells, according to SA based analysis. Schematic figures of each unbalanced process are shown. Drug predictions are indicated for each cell line, including the processes that they are predicted to target. (14B, 14E, 14H) Bar charts of survival rates in response to different treatments (as measured by methylene blue). For each cell line the combination of drugs predicted to target the complete unbalanced signaling signature was tested (marked with an asterix), as well as combinations that were predicted to only partially target the unbalanced signaling flux, each drug alone and taxol. For MDA468 a triple combination was tested as well (marked with two asterix signs, shown in the inset in FIG. 14E). […] Stain-free imaging was used to ensure equal loading. […] Bar chart inserts show quantified relative expression of the investigated protein.
To validate the approach, we analyzed a dataset comprising RPPA measurements from 10 cell lines, including breast, ovarian, and oesophageal cancer, and assigned a barcode and drug combinations to each cell line. The predictions were made such that for each cell line, at least one protein hub from every active unbalanced process will be inhibited, aiming to collapse the sample-specific altered signaling network. Three breast cancer cell lines were chosen for experimental validation: MDA-MB-231 (MD231), MDA-MB-468 (MD468), and MCF7. The two formers represent triple negative breast cancer (TNBC) against which no targeted therapy exists in clinics today. TNBC is often treated with non-specific chemotherapy, such as taxol^1. MCF7 represent luminal type A breast cancer, routinely treated with the ERα inhibitor, tamoxifen, and in some cases chemotherapy such as taxanes.

A further test deals with MDA-MB-468 cells. The experiment in a line: Survival of MDA-MB-468 cells after drug treatment (methylene blue). The following applies: maximal killing, FIG. 14E.
Text: as §1
To validate the approach, we analyzed a dataset comprising RPPA measurements from 10 cell lines, including breast, ovarian, and oesophageal cancer, and assigned a barcode and drug combinations to each cell line. The predictions were made such that for each cell line, at least one protein hub from every active unbalanced process will be inhibited, aiming to collapse the sample-specific altered signaling network. […]

Another test concerns MCF7 cells. Put plainly: Survival of MCF7 cells after drug treatment (methylene blue). The following applies: maximal killing, FIG. 14H. On the procedure:
Schematic figures of each unbalanced process are shown. […] For each cell line the combination of drugs predicted to target the complete unbalanced signaling signature was tested (marked with an asterix), as well as combinations that were predicted to only partially target the unbalanced signaling flux, each drug alone and taxol. […] Stain-free imaging was used to ensure equal loading.
Indeed, 4-OHT killed only up to 50% of the cells (FIG. 14H). […] Similar to the case in MDA468 cells, the double combination consisting of T and LY was expected to target all unbalanced processes in these cells, however since there are 4 distinct unbalanced processes that need to be targeted, addition of a third drug is apparently necessary to enhance the effect (FIG. 14G-I).

In the case of `C#Cc1cccc(Nc2ncnc3cc(OCCOC)c(OCCOC)cc23)c1` [erlotinib], the “killing / survival of MDA231 cells” value in the test with MDA-MB-231 cells was “no effect”. Turning to `CC(=O)Nc1cccc(-n2c(=O)n(C3CC3)c(=O)c3c(Nc4ccc(I)cc4F)n(C)c(=O)c(C)c32)c1` [trametinib], the “concentration at which efficacy of the treatment plateaued” value in the test with MDA-MB-231 cells is listed as 100 nM. For the compound `CC(=O)O[C@H]1C(=O)[C@@]2(C)[C@H]([C@H](OC(=O)c3ccccc3)[C@]3(O)C[C@H](OC(=O)[C@H](O)[C@@H](NC(=O)c4ccccc4)c4ccccc4)C(C)=C1C3(C)C)[C@]1(OC(C)=O)CO[C@@H]1C[C@@H]2O` [taxol], in the test with MDA-MB-231 cells, the “concentration at which efficacy of the treatment plateaued” value stood at 100 nM and the “killing / survival of MDA231 cells” value is on record as “efficiently killed”. Further, in the test on MDA-MB-468 cells, the cells killed is reported as around 80%. Turning to 4-hydroxy tamoxifen [4-OHT], the cells killed result in the test with MCF7 cells was “up to 50%”.

Values taken from patent US20220180963A1, “METHOD FOR SELECTING PATIENT SPECIFIC THERAPY” (YISSUM RESEARCH DEVELOPMENT COMPANY OF THE HEBREW …, priority 2018, published 2022).
